From ChEMBL document CHEMBL3832761, “MMV Pathogen Box Bioactivity Data” (2017)
In brackets after ≈: the same amount, converted by molar mass. Activity calls are given as the source filed them. No cut-off for these calls is given here.

Key:
[1] = tested on: Mycobacterium tuberculosis; experiment: AntiMycobacterium tuberculosis activity 1-week 7H9/ADC/Tw MIC (uM); type: functional; settings: 168 h
HepG2 [2] = experiment: HepG2 CC50 (uM) Cytotoxicity; type: functional; settings: Homo sapiens
[3] = tested on: Mycobacterium tuberculosis; experiment: AntiMycobacterium tuberculosis activity day 21 MIC99 in 7H9/2.5mM butyrate/pH6/0.1mM nitrite MIC99 (uM); type: functional; settings: 504 h
[4] = tested on: Mycobacterium tuberculosis; experiment: (§1) AntiMycobacterium tuberculosis activity day 10 in 7H9/2.5mM butyrate/pH6/0.1mM nitrite MIC90 (uM); type: functional; settings: 240 h
[5] = tested on: Mycobacterium tuberculosis; experiment: AntiMycobacterium tuberculosis activity 2-week 7H9/glucose/BSA/Tx MIC (uM); type: functional; settings: 336 h
[6] = tested on: Mycobacterium tuberculosis; experiment: AntiMycobacterium tuberculosis activity 1-week 7H9/glucose/BSA/Tx MIC (uM); type: functional; settings: 168 h
[7] = tested on: Mycobacterium tuberculosis; experiment: as §1; type: functional; settings: 240 h; remark: listed apart in the source
[8] = tested on: Mycobacterium tuberculosis; experiment: AntiMycobacterium tuberculosis activity Replicating form: Average MIC90 (uM); type: functional
[9] = tested on: Mycobacterium tuberculosis; experiment: AntiMycobacterium tuberculosis activity 2-week 7H9/DPPC/cholesterol/BSA/Tx MIC (uM); type: functional; settings: 336 h
[10] = tested on: Mycobacterium tuberculosis; experiment: AntiMycobacterium tuberculosis activity 2-week 7H9/ADC/Tw MIC (uM); type: functional; settings: 336 h
[11] = tested on: Mycobacterium tuberculosis; experiment: AntiMycobacterium tuberculosis activity 2-week Alamar Blue 7H9/cholesterol/BSA/Tx MIC (uM); type: functional; settings: 336 h
[12] = tested on: Mycobacterium tuberculosis; experiment: AntiMycobacterium tuberculosis activity 2-week GAST/Fe MIC (uM); type: functional; settings: 336 h
[13] = tested on: Mycobacterium tuberculosis; experiment: AntiMycobacterium tuberculosis activity day 21 in 7H9/2.5mM butyrate/pH6/0.1mM nitrite MIC90 (uM); type: functional; settings: 504 h
[14] = tested on: Mycobacterium tuberculosis; experiment: AntiMycobacterium tuberculosis activity 2-week Alamar Blue 7H9/ADC/Tw MIC (uM); type: functional; settings: 336 h
[15] = tested on: Mycobacterium tuberculosis; experiment: AntiMycobacterium tuberculosis activity 1-week 7H9/DPPC/cholesterol/BSA/Tx MIC (uM); type: functional; settings: 168 h
[16] = tested on: Mycobacterium tuberculosis; experiment: AntiMycobacterium tuberculosis activity 1-week GAST/Fe MIC (uM); type: functional; settings: 168 h
[17] = tested on: Mycobacterium tuberculosis; experiment: AntiMycobacterium tuberculosis activity 1-week 7H9/cholesterol/BSA/Tx MIC (uM); type: functional; settings: 168 h
[18] = tested on: Mycobacterium tuberculosis; experiment: AntiMycobacterium tuberculosis activity Non-Replicating form: Average MIC90 (uM); type: functional
Plasmodium berghei = experiment: Antimalarial activity: Liver Stage Plasmodium berghei sporozoite Luciferase assay: inhibition at 10 uM (%); type: functional
Plasmodium falciparum [19] = experiment: Antimalarial activity: Gametocytes Plasmodium falciparum NF54 Gametocytes Stage V: inhibition at 10 uM (%); type: functional
Plasmodium falciparum [20] = experiment: Antimalarial activity: Asexual Blood Stage Plasmodium falciparum 3D7 IC50 (uM); type: functional, organism-based
Plasmodium falciparum [21] = experiment: Antimalarial activity: Asexual Blood Stage Plasmodium falciparum W2 IC50 (uM); type: functional, organism-based
HepG2 [22] = experiment: Cytotoxicity data HepG2 CC20 (uM); type: functional

Compound | MIC [1] | CC50 (HepG2 [2]) | MIC [3] | MIC90 [4] | MIC [5] | MIC [6] | MIC90 [7] | MIC90 [8] | MIC [9] | MIC [10] | MIC [11] | MIC [12] | MIC90 [13] | MIC [14] | MIC [15] | MIC [16] | MIC [17] | MIC90 [18] | also measured
CCc1c(C)nc(-n2nc(C)cc2NC(=O)c2ccccc2SC)[nH]c1=O | > 50 µM | 1.3 µM | > 50 µM | 3.12 µM (≈ 1.2 µg/mL) | > 50 µM | 9.4 µM (≈ 3.6 µg/mL) | > 50 µM | > 100 µM | > 50 µM | > 50 µM | > 50 µM | 0.2 µM (≈ 0.0767 µg/mL) | > 50 µM | 37 µM (≈ 14.2 µg/mL) | 3.13 µM (≈ 1.2 µg/mL) | 0.1 µM (≈ 0.0383 µg/mL) | 6.25 µM (≈ 2.4 µg/mL) | 1.25 µM (≈ 0.479 µg/mL) | –
CC(C)=CCC/C(C)=C\CNCCNC1C2CC3CC(C2)CC1C3 (stereo not drawn) | 0.78 µM (≈ 0.258 µg/mL) | 7.1 µM | > 50 µM | > 50 µM | 1.2 µM (≈ 0.397 µg/mL) | 0.6 µM (≈ 0.198 µg/mL) | > 50 µM | 1.24 µM (≈ 0.41 µg/mL) | 0.6 µM (≈ 0.198 µg/mL) | 1.2 µM (≈ 0.397 µg/mL) | 0.78 µM (≈ 0.258 µg/mL) | 0.78 µM (≈ 0.258 µg/mL) | > 50 µM | 1.2 µM (≈ 0.397 µg/mL) | 0.39 µM (≈ 0.129 µg/mL) | 0.39 µM (≈ 0.129 µg/mL) | 0.39 µM (≈ 0.129 µg/mL) | 5.3 µM (≈ 1.75 µg/mL) | –
COc1cccc(OC)c1C(=O)Nc1ccc(Cl)c(-c2nc3ccccc3s2)c1 | 37 µM (≈ 15.7 µg/mL) | > 100 µM | > 50 µM | > 50 µM | 25 µM (≈ 10.6 µg/mL) | 25 µM (≈ 10.6 µg/mL) | > 50 µM | 26.1 µM (≈ 11.1 µg/mL) | 12.5 µM (≈ 5.31 µg/mL) | 37 µM (≈ 15.7 µg/mL) | 19 µM (≈ 8.07 µg/mL) | 9.4 µM (≈ 3.99 µg/mL) | > 50 µM | 37 µM (≈ 15.7 µg/mL) | 12.5 µM (≈ 5.31 µg/mL) | 6.25 µM (≈ 2.66 µg/mL) | 12.5 µM (≈ 5.31 µg/mL) | 55.1 µM (≈ 23.4 µg/mL) | –
COc1cccc(-c2nc3c(N4CCCC4)cccc3n2CC2CCCN2)n1 (stereo not drawn) | 9.4 µM (≈ 3.55 µg/mL) | 25 µM | > 50 µM | 12.5 µM (≈ 4.72 µg/mL) | 37 µM (≈ 14 µg/mL) | 25 µM (≈ 9.44 µg/mL) | > 50 µM | 38.5 µM (≈ 14.5 µg/mL) | 50 µM (≈ 18.9 µg/mL) | 9.4 µM (≈ 3.55 µg/mL) | 9.4 µM (≈ 3.55 µg/mL) | 4.7 µM (≈ 1.77 µg/mL) | 25 µM (≈ 9.44 µg/mL) | 6.25 µM (≈ 2.36 µg/mL) | 25 µM (≈ 9.44 µg/mL) | 4.7 µM (≈ 1.77 µg/mL) | 37 µM (≈ 14 µg/mL) | 80.6 µM (≈ 30.4 µg/mL) | –
NCC(c1cccs1)S(=O)(=O)c1ccccc1 (stereo not drawn) | 19 µM (≈ 5.08 µg/mL) | 35.4 µM | > 50 µM | 25 µM (≈ 6.68 µg/mL) | 25 µM (≈ 6.68 µg/mL) | 25 µM (≈ 6.68 µg/mL) | > 50 µM | 20.7 µM (≈ 5.52 µg/mL) | 50 µM (≈ 13.4 µg/mL) | 25 µM (≈ 6.68 µg/mL) | 50 µM (≈ 13.4 µg/mL) | 2.3 µM (≈ 0.615 µg/mL) | 25 µM (≈ 6.68 µg/mL) | 25 µM (≈ 6.68 µg/mL) | 50 µM (≈ 13.4 µg/mL) | 1.56 µM (≈ 0.417 µg/mL) | 50 µM (≈ 13.4 µg/mL) | 19.6 µM (≈ 5.24 µg/mL) | –
Cc1cc(Nc2ccc(C(F)(F)F)cc2)n2ccnc2n1 | – | – | – | – | – | – | – | – | – | – | – | – | – | – | – | – | – | – | inhibition (Plasmodium berghei): Series known to be active; inhibition (Plasmodium falciparum [19]): Series known to be inactive; IC50 (Plasmodium falciparum [20]): 0.38 µM; IC50 (Plasmodium falciparum [21]): 0.36 µM
O=C(NCCN1CCCC1)c1cc(NCCCCN2CCC(F)(F)CC2)nc2ccc(Cl)cc12 | – | – | – | – | – | – | – | – | – | – | – | – | – | – | – | – | – | – | inhibition (Plasmodium berghei): Series known to be active; inhibition (Plasmodium falciparum [19]): Series known to be active; IC50 (Plasmodium falciparum [20]): 0.01 µM
O=C(C1CCN(c2nnnn2-c2ccccc2)CC1)N1CCc2ccccc2C1 | – | – | – | – | – | – | – | – | – | – | – | – | – | – | – | – | – | – | CC20 (HepG2 [22]): >80 µM; inhibition (Plasmodium falciparum [20]): inactive
Nc1ncnc2c1ncn2C[C@@H](O)[C@@H](O)C(=O)O [ERITADENINE] | – | – | – | – | – | – | – | – | – | – | – | – | – | – | – | – | – | – | CC20 (HepG2 [22]): >80 µM
O=C(COc1cccc(F)c1)Nc1nc(-c2ccccn2)cs1 | 37 µM (≈ 12.2 µg/mL) | – | > 50 µM | 12.5 µM (≈ 4.12 µg/mL) | 37 µM (≈ 12.2 µg/mL) | 19 µM (≈ 6.26 µg/mL) | > 50 µM | 84.4 µM (≈ 27.8 µg/mL) | 50 µM (≈ 16.5 µg/mL) | 50 µM (≈ 16.5 µg/mL) | 37 µM (≈ 12.2 µg/mL) | 2.3 µM (≈ 0.758 µg/mL) | 25 µM (≈ 8.23 µg/mL) | 50 µM (≈ 16.5 µg/mL) | 19 µM (≈ 6.26 µg/mL) | 1.2 µM (≈ 0.395 µg/mL) | 19 µM (≈ 6.26 µg/mL) | 27.5 µM (≈ 9.07 µg/mL) | –
COc1ccc(-c2cc(NC(=O)c3ccc(F)cc3Cl)ccc2OC)cc1 | – | > 100 µM | – | – | – | – | – | – | – | – | – | 19 µM (≈ 7.33 µg/mL) | – | 50 µM (≈ 19.3 µg/mL) | – | 3.13 µM (≈ 1.21 µg/mL) | 25 µM (≈ 9.65 µg/mL) | 67.7 µM (≈ 26.1 µg/mL) | –
